Reference: patent US5814627A, “3, 5-disubstituted and 3, 4, 5-trisubstituted 2-isoxazolines and isoxazoles, process for their preparation and their use as pharmaceuticals” (Hoechst Aktienegesellschaft, priority 1994, dated 1998)

Key:
[1] = system: polymorphonuclear leucocytes (PMNL); experiment: Test 1: Release of proteolytic activity from human PMNL; format: cell-based; settings: Homo sapiens, PMNL, read-out: Test 1 residual activity (release of proteolytic activity), percent of control
Procedure, shortened: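 Human peripheral-blood PMNL (5·10^6 cells/ml in PBS with 7.5 mM glucose) preincubated 20 min at 37° C. with compound, then primed with cytochalasin B (5 μg/ml) and TNF (30 ng/ml), and stimulated with fMLP (10 nmol/l) for 60 min. Released protease in supernatant read with methoxysuccinyl-nitroanilide substrate at 405 nm over 0-60 min, pH 7.5.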

[2] = system: leukotriene B4 synthesis in white blood cells; experiment: Test 3: LTB4 formation by white blood cells; format: cell-based; settings: Homo sapiens, read-out: Test 3 residual activity (LTB4 formation), percent of control
Procedure, shortened: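 Human blood leukocytes (dextran sedimentation, 10^7 cells/ml) preincubated 15 min at 37 °C with compound plus CaCl2/MgCl2, then stimulated with A23187/glutathione for 5 min at 37 °C. LTB4 in supernatant quantified by reversed-phase HPLC with UV at 280 nm; residual activity given as percent of control at stated μM concentration.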

[3] = system: PAF-induced asthma attack; experiment: Test 7: antiasthmatic effect, PAF-induced asthma attack; format: in vivo; settings: Cavia porcellus; i.d., 15 minutes before PAF; guinea pig
Procedure, shortened: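 Anesthetized guinea pigs given PAF through a jugular vein cannula; test compounds dosed i.v. through the same cannula 5 min before PAF, or intraduodenally via surgical cannula 15 min before. Bronchial width recorded by overflow pneumonogram before and after dosing; ED50 in mg/kg i.d. against the PAF-induced attack.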

Row | SMILES | activity at 100 µM [1] | activity at 1 µM [2] | activity at 10 µM [2] | ED50 [3] | activity at 1 µM [1] | activity at 10 µM [1]
1 | CC(C)(C)c1cc(C2=NOC(c3ccccn3)C2)cc(C(C)(C)C)c1O (stereo not shown) [Example 9] | 64% | 59% | 0% | ~50 mg/kg |  | 
2 | CC(O)c1cc(-c2cc(C(C)(C)C)c(O)c(C(C)(C)C)c2)no1 (stereo not shown) [Example 28] |  | 14% | 0% |  | 97% | 59%
3 | CCOC(=O)CNC(=O)OCCCc1cc(-c2cc(C(C)(C)C)c(O)c(C(C)(C)C)c2)no1 [Example 41, N-(3-(4-Hydroxy-3,5-di-tert-butylphenyl)isoxazol-5-ylpropoxycarbonyl)glycine ethyl ester] | 78% |  | 13% |  |  | 
4 | CC(C)(C)c1cc(-c2cc(CNS(=O)(=O)C(F)(F)F)on2)cc(C(C)(C)C)c1O [Example 49, N-(3-(4-Hydroxy-3,5-di-tert-butylphenyl)isoxazol-5-ylmethyl)trifluoromethanesulfonamide] | 19% | 90% | 0% | ~50 mg/kg | 88% | 23%
5 | CC(C)(C)c1cc(C2CC(CCC(=O)O)=NO2)cc(C(C)(C)C)c1O (stereo not shown) [Example 63, 5-(4-Hydroxy-3,5-di-tert-butylphenyl)-2-isoxazolin-3-ylpropionic acid] | 66% |  | 91% |  |  | 88%
